Test results published in a melting point compilation (Tetko et al.; mined from patent text by program, amines drawn as free bases though some values may be those of a salt).

Row | Compound | melting point
1 | c1ccc(P(Cc2ccccc2-c2ccccc2CP(c2ccccc2)c2ccccc2)c2ccccc2)cc1 | 84 to 87 °C
2 | O=C(O)CNc1cc(Cl)ccc1[N+](=O)[O-] | 147 to 148 °C
3 | CC(Cl)(Cl)C1(Cl)N=C(Cl)C(Cl)=N1 | 58 to 60 °C
4 | CCn1ncc(C(=O)c2ccc(S(C)(=O)=O)c(N3CCOC(=O)C3)c2Cl)c1O | 198 to 202 °C
5 | COC(=O)C1=C(O)c2c(c3cc(OC)ccc3n2C)S(=O)(=O)N1 | 225 to 226 °C
6 | COc1cc(OC)nc(Oc2cccc3c2C(=O)OC3OCC#N)n1 (stereo unspecified) | 99 to 102 °C
7 | CC(=O)Nc1nc(OCc2cccs2)ncc1F | 134 to 136 °C
8 | O=c1[nH]c2ccc3cccnc3c2o1 | > 300 °C
9 | COCOc1cc(OC)ccc1C(=O)c1ccc(OCc2nc(-c3ccccc3)oc2C)cc1C | 107 to 108 °C
10 | O=C(CN1CN(OC(F)(F)F)C=N1)c1ccccc1 | 98 to 101 °C
11 | Cn1cc(CN2CCCNC2=C[N+](=O)[O-])cn1 | 186 to 190 °C
12 | Cc1nc2c([nH]1)C(=O)N1CCN=C1N2Cc1ccc(Cl)cc1 | 312 to 314 °C
13 | Brc1cncc(C2CCCCN2)c1 (stereo unspecified) | 97 to 97.5 °C
14 | CCCN(CCC)C(=O)C(CCC(=O)NC)NC(=O)OCc1ccccc1 (stereo unspecified) | 75 to 76 °C
15 | O=c1oc2c3ccccc3ccc2c2occc12 | 198 to 200 °C
16 | COc1cc(C=O)ccc1OCc1sc(-c2ccccc2)nc1C | 118 to 119 °C
17 | CC1(C)C=C(c2ccccn2)c2cc(Cl)c(Cl)cc2OC1 | 98 °C
18 | Cc1ccc(-c2cc(OCC(=O)N3CCOCC3)c3ccccc3n2)cc1 | 146 °C
19 | CC(=O)NC(C)(C)c1ccc(CN2CCN(c3ncccn3)CC2)cc1 | 137 to 138 °C
20 | CCOC(=O)c1cn2c(n1)C=NC=C1C=CCC=C12 | 134 to 135 °C
21 | CCOc1nc2cccc(C(=O)O)c2n1Cc1ccc(-c2ccccc2-c2nc(=O)o[nH]2)cc1 | 156 to 157 °C
22 | CCOC(=O)[C@@]1(C)CSC(c2ccc(OCCOCCOC)cc2O)=N1 | 68 to 70 °C
23 | CCON=C(CC)C1=C(O)CC(c2c(C)c3c(c(C)c2Cl)CC(C)(CC)C3)CC1=O (stereo unspecified) | 56 to 58 °C
24 | CC(C)(C)c1ccc(C(=O)n2c3c(c4ccccc42)CC(C(=O)O)CC3)cc1 (stereo unspecified) | 174 to 175 °C
25 | CC(C)C(NC=O)C(=O)O (stereo unspecified) | 143 to 145 °C
26 | CNc1nc(N)nc(-c2ccccc2)c1-c1ccc(=O)n(C(C)C)n1 | 268 to 270 °C

Row | Compound | melting point
27 | COC(=O)c1ccc2oc(-c3cc(C)ccc3OC(C)C)cc(=O)c2c1 | 149 to 151 °C
28 | O=C(O)c1cn(C2CC2)c2c(F)c(N3Cc4cccc(O)c4C3)c(F)cc2c1=O | > 300 °C
29 | O=C1NC(=O)c2c1c(-c1ccccc1)cc1c2c2cc(O)ccc2n1CCN1CCOCC1 | 260 to 262 °C
30 | O=C(O)Cc1cccc2c1NC(=O)C2 | 234 to 236 °C
31 | COc1ccc(COc2cccc(C(C)O)c2OCc2ccc(OC)cc2)cc1 (stereo unspecified) | 88 to 89 °C
32 | Cn1cnc2c1c(=O)n(CC(O)CN1CCN(C(c3ccc(F)cc3)c3ccc(F)cc3)CC1)c(=O)n2C (stereo unspecified) | 138 to 140 °C
33 | CCN(CC)c1nc(Cl)nc2c(Cl)ncnc12 | 113 to 114 °C
34 | O=C1CCC(N2C(=O)c3cccc(CNC(=O)c4cnccn4)c3C2=O)C(=O)N1 (stereo unspecified) | > 260 °C
35 | O=C1CCCCCCCCCCCCCCC1 | 67.7 °C
36 | CCC1=CC(c2cccc([N+](=O)[O-])c2)C2=C(CCCC2=O)N1 (stereo unspecified) | 182 to 184 °C
37 | COc1ccc(N2CCN(CCC(O)COc3ccc(F)cc3)CC2)cc1 (stereo unspecified) | 78 to 80 °C
38 | Nc1cc(N2C(=O)COc3ccccc32)ccn1 | 189 to 190 °C
39 | Clc1ccc(C(Cl)Cl)cn1 | 60 °C
40 | CN1CCC2=C(CCCC2)C1Cc1ccc(O)cc1 (single isomer, unassigned; (-)) | 119 to 120 °C
41 | CC(C)OCc1cnc2c([N+](=O)[O-])cccc2c1Cl | 83 to 86 °C
42 | S=C(NC1CCCc2sccc21)C1CCNCC1 (stereo unspecified) | 102 °C
43 | O=C(O)[C@@H](Cc1ccccc1)Oc1c(Br)cc(-c2c3ccccc3c(C(F)(F)F)c3sc4ccccc4c23)cc1Br | 109 to 143 °C
44 | Clc1c2c(nc3ccccc13)CCCNC2 | 127 °C
45 | CC(C)N1C(=O)[C@@H](CC(=O)NCC#N)O[C@H](c2ccccc2Cl)c2cc(Cl)ccc21 (relative stereo) | 216 to 217 °C
46 | CC1(C)NC(=O)N(c2ccc([N+](=O)[O-])c(C(F)(F)F)c2)C1=O | 149 °C
47 | CNC(=NCCSCc1[nH]cnc1C)NS(C)(=O)=O | 133 to 134 °C
48 | O=C(Nc1cccc2c(O)cccc12)c1ccc(F)c([N+](=O)[O-])c1 | 235 to 238 °C
49 | COC(=O)c1cc(C(=O)c2ccccc2)ccc1OC | 88 °C
50 | COCC(O)COc1ccc2cc(S(N)(=O)=O)sc2c1 (stereo unspecified) | 128 to 129 °C
51 | CCCCC(CC)CNC(=O)c1cc(C(C)(C)C)c(O)c(C(C)(C)C)c1 (stereo unspecified) | 136 to 140 °C
52 | COC(=O)COc1ccc(NC(=O)CCCCCO)cc1 | 87.5 to 90.4 °C

Row | Compound | melting point
53 | N/C(=C1/Sc2ccccc2C1=O)c1ccccc1C(F)(F)F | 148 to 149 °C
54 | COc1ccc(COc2ccc(CSc3ccc(OCC(=O)O)c4c3CCC4)cc2)cc1 | 183 to 185 °C
55 | CCN(CC)CCN1C(=O)Nc2ccc([N+](=O)[O-])cc2C1c1ccccc1 (stereo unspecified) | 161 to 163 °C
56 | CCOCc1nc2c(N)nc3cc(Br)ccc3c2n1CCCCNC(=O)NC(C)C | 211 °C
57 | COc1cc2c(cc1OC)-c1c(OC)c(OC)cc3ccnc(c13)C2=O | 229 to 230 °C
58 | COC(=O)C(CC1(C)C(=O)Nc2ccccc21)NC(=O)c1ccc(Cl)cc1 (stereo unspecified) | 201 to 202 °C
59 | O=C(CO[C@H]1Cc2c(cccc2OCc2ccccc2)C[C@H]1OCC(=O)N1CCOCC1)N1CCOCC1 (relative stereo) | 106 to 110 °C
60 | O=Cc1c(Cl)cc(Cl)cc1-c1ccc(F)cc1 | 73 to 74 °C
61 | O=C(Nc1cnc(-c2ccccc2)nc1C(=O)O)OCc1cc2cc(-c3ccccc3)ccc2o1 | 184 to 185 °C
62 | O=S(Cc1ccccc1)c1ccccc1 (stereo unspecified) | 123 to 126 °C
63 | COc1ccc(C(=O)NCCC=CCCCNC(=O)c2ccc(OC)cc2)cc1 | 141 to 143 °C
64 | O=C1C2CCCN2c2ncccc2N1Cc1ccncc1 (stereo unspecified) | 262 to 265 °C
65 | CCOc1nc(O)cc(OC)n1 | 146 to 148 °C
66 | C=CCOc1ccccc1-c1nc2c(CCC)nn(C)c2c(=O)[nH]1 | 116 to 119 °C
67 | CNC(=O)c1cccc(C=O)c1O | 129 to 131 °C
68 | Cc1cc(SC(C)C)c(NC(=O)CCCSc2nc3c(C)c(Cl)cc(C(C)C)c3o2)c(SC(C)C)n1 | 141 to 143 °C
69 | Cc1ccc([N+](=O)[O-])cc1Nc1ncc(-c2ccc(C#N)cc2)o1 | > 228 °C
70 | CCOC(=O)Cc1cccc(-c2nc(COc3ccc(COc4nn(-c5ccccc5)cc4C=O)cc3OC)c(C)o2)c1 | 145 to 146 °C
71 | c1cc(-c2n[nH]c3c2Cc2cc(CN4CCOCC4)ccc2-3)cs1 | 196 to 198 °C
72 | CC(C)(C)c1cc(C(N)=O)cc(C(C)(C)C)c1O | 263 to 265 °C
73 | O=C(Nc1cccc(Br)n1)Nc1cccc2c1C1CC3(CCN1C2=O)SCCS3 (stereo unspecified) | 170 °C
74 | NCCc1ccc(-n2nc(C(F)(F)F)cc2C(F)(F)F)cc1 | 54 °C
75 | CCCC(=O)Oc1ccc(-c2ccc(C#N)cc2)cc1 | 77.9 to 78.2 °C
76 | CCONC(=O)c1cc(NC(C)=C2C(=O)OC(=O)C(C(C)=O)=C2O)cc(C(=O)NOCC)c1 | 234 to 235 °C
77 | CC(C)c1cc2n(CCc3ccccc3)cc(C(=O)O)c(=O)n2n1 | 220 to 225 °C
78 | CC[C@H](C)[C@H](Nc1nc(OC)ns1)C(=O)N1CCC[C@H]1C(=O)OC | 129 to 130 °C

Row | Compound | melting point
79 | CC(=O)N1CCN(c2ccn3nc(-c4ccccc4)c(-c4ccc(=O)n(C(C)C)n4)c3c2)CC1 | 148 to 149 °C
80 | CCN1C(=O)N(c2cc(OC)cc(OC)c2Cl)Cc2cnc(SC)nc21 | 189 to 191 °C
81 | COC(=O)C1=C(C)NC(C)=C(C(=O)OCC(C)C)C1c1cccc2nonc12 (stereo unspecified) | 148 to 158 °C
82 | O=C(Nc1ccc(Oc2ccnc(NCC3CCCO3)n2)c2ccccc12)c1cc(F)cc(N2CCOCC2)c1 (stereo unspecified) | 103 to 105 °C
83 | CC1=C(c2nc(C)no2)C(c2cccc(Cl)c2Cl)C(c2nc(C)no2)=C(C)N1 | 227 to 229 °C
84 | Cc1ccc(C(O)(Cc2nnnn2C)c2ccc(C)cc2F)c(F)c1 | 150 to 151 °C
85 | CSc1ccc(C(=O)Nc2ccc3ccc(Cl)nc3n2)cc1 | 199 °C
86 | CC1(C)CC(=O)c2ccc(Cl)cc2O1 | 63 to 66 °C
87 | COC(=O)C1C=CCN2C(=O)C(CCI)(Cc3ccccc3)C(=O)N12 (stereo unspecified) | 90 to 92 °C
88 | O=C1c2c(Cl)cccc2-n2cnc(-c3nc(CN4CCCC4)cs3)c2[C@@H]2CCCN12 | 213 to 214 °C
89 | Cc1c(NC(=O)OCc2ccccc2)cccc1C(C[N+](=O)[O-])c1c[nH]c2cc(OC3CCOC3)ccc12 (stereo unspecified) | 130 °C
90 | O=C(NC(=O)C(c1ccccc1)c1ccccc1)C1CC1 | 178 °C
91 | CN(C)C=Nc1c(Cl)cc(NCc2ccc(N(C)C)cc2F)cc1Cl | 118 to 120 °C
92 | Cc1ccc(F)c(CSc2nc(N[C@H](C)CO)c3ncc(=O)[nH]c3n2)c1 | 202 to 204 °C
93 | O=[N+]([O-])c1ccccc1Cc1n[nH]c(S)n1 | 239 to 241 °C
94 | O=S(=O)(CCCCl)NC1CC1 | 48 to 49.5 °C
95 | COc1ccc(C(=O)Nc2ccccc2)cc1NCc1ccc(C(C)C)cc1 | 174 to 176 °C
96 | Cc1ccnc(S(=O)(=O)c2ccccc2)c1 | 128 to 129 °C
97 | CN=C(NS(=O)(=O)N1CCOCC1)C1=NN(c2ccc(Cl)cc2Cl)C(c2ccccc2)C1 (stereo unspecified) | 161 to 165 °C
98 | Nc1c(-c2csc(-c3ccncc3)n2)c(=O)[nH]c2ccc(Cl)cc12 | > 220 °C
99 | Sc1nc(CCCc2cc(Cl)cc(Cl)c2)c[nH]1 | 98 to 99 °C
100 | Cc1c(C)c2c(c(C)c1NC(=O)CC(C)(C)C)C(c1ccc(C(C)C)c(O)c1)CO2 (stereo unspecified) | 220 to 221 °C
101 | CN(C)c1ccc(C2(c3ccc(N(C)C)cc3N(C)C)OC(=O)c3c(Cl)c(Cl)c(Cl)c(Cl)c32)c(N(C)C)c1 | 195 to 197 °C
